Assay [1] has as its system adaptive NKG2C+ NK cells. As to the kind of experiment: Stimulation of purified NK cells with peptide-pulsed RMA-S/HLA-E (effector functions). The class given is cell-based, human. The conditions noted are these: RMA-S/HLA-E pulsed with 300 μM peptide; 6 h; NK cells from healthy HCMV+ individuals. As for the experimental part: HLA-E surface stabilization was induced as described previously^30. In brief, 300 μM synthetic peptides (Peptides&Elephants) were added to target cells cultured at a density of 2×10^6 cells/ml in serum-free Opti-MEM (ThermoFisher) and incubated for 16 h at 37° C. Peptide-pulsed cells were either stained for FACS analysis of HLA-E surface expression or washed with complete media and used in co-cultures. For pulse-chase experiments, cells were pulsed as above, washed twice, and resuspended in Opti-MEM without peptide. HLA-E surface expression was monitored by FACS analysis at indicated time points.
CD56^+ MACS-enriched cells were stained with viability dye, CD3, and CD56, FACS-sorted for viable CD3^−CD56^+ NK cells, and rested overnight in complete medium. Purified NK cells were stimulated by co-culture with peptide-pulsed (300 μM) irradiated (30 Gy) target cells at a 2:1 NK:target ratio for 6 h in the presence of 300 μM synthetic peptides.
For blocking experiments, rested FACS-sorted viable CD3^− CD56^dim NKG2A^− NKG2C+ NK cells were treated with 20 μg/ml IgG1 isotype control or anti-CD94 antibody (both RnD Systems) for 15 min prior to start of the co-culture.

In assay [2] the test system is NKG2C+ NK cells. As to the kind of experiment: In vitro culture of CD56dim NK cells from HCMV− donors with peptide-pulsed targets and IL-15 (proliferation, accumulation). The class given is cell-based, human. Conditions: RMA-S/HLA-E/LFA-3, IL-15, IL-12/18 during initial 20 h, 14 days. As for the experimental part:
CD56^+ MACS-enriched cells from HCMV^− donors were stained with viability dye, CD3, and CD56, FACS-sorted for viable CD3^− CD56^dim NK cells, and rested overnight in complete medium. Purified CD56^dim NK cells were labeled with 2 μM CellTrace violet (Thermo Fisher) according to the manufacturer's instructions. 5×10^5 labeled NK cells were cultured with 1×10^5 peptide-pulsed […] irradiated (30 Gy) target cells in complete medium containing 10 ng/ml IL-15 (Miltenyi Biotec) in U-bottom 96-well plates (Greiner Bio-One) for the indicated times. Complete medium containing IL-15 was replaced every third to fourth day. On days 4, 7, and 11 of culture, 1×10^5 fresh peptide-pulsed irradiated target cells were added to the cultures.
Where indicated, 10 ng/ml IL-12 (Miltenyi Biotec) and 100 ng/ml IL-18 (MBL) were added at the start of co-cultures. After 20 h of culture, the cells were washed 3 times and resuspended in complete medium containing 10 ng/ml IL-15. Control wells without IL-12/18 were treated equally. To determine NKG2C+ NK cell numbers per μl of culture medium, CountBright Absolute Counting Beads (ThermoFisher) were used according to the manufacturer's instructions.
Proliferation and replication indices^60 of NKG2C+ cells were calculated using the proliferation analysis platform included in FlowJo v9.9 (FlowJo LLC) and normalized to those of NKG2C^− cells in the same condition.

For VMAPRTLVL, in assay [1], the “TNF, IFN-γ, CD107a, and CCL3 expression by adaptive NKG2C+ NK cells” value is recorded as “differentially triggered”. In assay [2], the “NKG2C+ NK-cell absolute counts and frequencies” value is on record as “increase of NKG2C+ NK-cell absolute counts as well as frequencies”.

Values taken from patent US10864245B2, “Activation and expansion of NKG2C+ NK cells” (Deutsches Rheuma-Forschungszentrum Berlin, priority 2018, dated 2020).
